The values that follow come from ChEMBL document CHEMBL5329204, “Design, synthesis and biological evaluation of EGFR kinase inhibitors that spans the orthosteric and allosteric sites” (Bioorg Med Chem, 2023).

What is called IC50 is the concentration needed to halve the response being measured.

Assay [1] can be described thus: Inhibition of EGFR Del19/T790M/C797S triple mutant in mouse BaF3 cells assessed as cell growth inhibition measured after 72 hrs by CellTiter-Glo assay. Format: cell-based. The following applies: BaF3, 72 h. For orientation: In ATP-based viability assays light output follows the ATP content of the culture.
For assay [2], the system named is NCI-H1975. Nature of the assay: Anticancer activity against human NCI-H1975 cells assessed as cell growth inhibition measured after 72 hrs by MTT assay. Format: functional, cell-based. The following applies: NCI-H1975, 72 h.
A short description of assay [3]: Inhibition of EGFR L858R/T790M/C797S triple mutant in mouse BaF3 cells assessed as cell growth inhibition measured after 72 hrs by CellTiter-Glo assay. Format: cell-based. The following applies: BaF3, 72 h.
For a further assay, the system named is A549. Nature of the assay: Anticancer activity against human A549 cells assessed as cell growth inhibition measured after 72 hrs by MTT assay. Format: functional, cell-based. The following applies: A549, 72 h. (In general: Tetrazolium assays rely on reduction of a dye to a coloured formazan, in cell work by metabolically active cells.)
Assay [4] can be described thus: Inhibition of EGFR L858R/T790M double mutant in mouse BaF3 cells assessed as cell growth inhibition measured after 72 hrs by CellTiter-Glo assay. Format: cell-based. The following applies: BaF3, 72 h.
For assay [5], the system named is NCI-H1975. Nature of the assay: Potency index, ratio of gefitinib IC50 to test compound IC50 for anticancer activity against human NCI-H1975 cells assessed as cell growth inhibition measured after 72 hrs by MTT assay. Format: functional.

Where only a bound is given, the exact number is not on record here.

In the case of `O=C(Nc1nccs1)C(c1ccccc1)N1Cc2ccccc2C1=O` (stereo not drawn), the IC50 (in assay [1]; in the assay with NCI-H1975 [2]; in assay [3]) was above 10 µM each time.

In the case of `COc1cc2ncnc(Nc3ccc(NC(=O)C(c4ccccc4)N4Cc5ccccc5C4=O)cc3F)c2cc1OCCCN1CCOCC1` (stereo not drawn), the figures for the IC50 (in the assay on NCI-H1975 [2]; in assay [3]) were 9 µM and 6.16 µM, respectively.

As to `COc1cc2ncnc(Nc3ccc(NC(=O)C(c4ccccc4)N4Cc5ccccc5C4=O)c(F)c3)c2cc1OCCCN1CCOCC1` (stereo not drawn), the IC50 was determined as 3.72 µM in the assay on NCI-H1975 [2] and 5.85 µM in assay [3].

`COCCOc1cc2ncnc(Nc3ccc(NC(=O)C(c4ccccc4)N4Cc5ccccc5C4=O)cc3)c2cc1OCCOC` (stereo not drawn): the IC50 was above 20 µM in assay [1]; 1.85 µM in the assay on NCI-H1975 [2]; above 20 µM in assay [3]; above 20 µM in the assay with A549; 2.69 µM in assay [4].

For `CNC(=O)CN1CCC(Oc2cc3c(Nc4ccc(NC(=O)C(c5ccccc5)N5Cc6ccccc6C5=O)cc4)ncnc3cc2OC)CC1` (stereo not drawn), the IC50 is above 20 µM in assay [1]; above 20 µM with NCI-H1975 [2]; above 20 µM in assay [3]; above 20 µM with A549; 1.32 µM in assay [4].

Consider `COc1cc2ncnc(Nc3ccc(CNC(=O)C(c4ccccc4)N4Cc5ccccc5C4=O)cc3)c2cc1OCCCN1CCOCC1` (stereo not drawn), for which the concentration for half-maximal inhibition (IC50) in the assay with NCI-H1975 [2] is 14.4 µM; in assay [3], above 20 µM.

In the case of `COc1cc2ncnc(NCc3cccc(NC(=O)C(c4ccccc4)N4Cc5ccccc5C4=O)c3)c2cc1OCCCN1CCOCC1` (stereo not drawn), the IC50 with NCI-H1975 [2] was 8.74 µM; in assay [3], 8.83 µM.

In the case of `CC(C)(O)CC(=O)NCCn1ccc2ncnc(Nc3ccc(NC(=O)C(c4ccccc4)N4Cc5ccccc5C4=O)cc3)c21` (stereo not drawn), the 50% inhibitory concentration (IC50) (in assay [1]; in the assay on NCI-H1975 [2]; in assay [3]; in the assay with A549; in assay [4]) was above 20 µM each time.

For `COc1cc2ncnc(NNC(=O)c3ccc(NC(=O)C(c4ccccc4)N4Cc5ccccc5C4=O)cc3)c2cc1OCCCN1CCOCC1` (stereo not drawn), the half-inhibitory concentration (IC50) (in the assay on NCI-H1975 [2]; in assay [3]) was above 20 µM in each case.

Take `COc1cc2ncnc(NNC(=O)c3cccc(NC(=O)C(c4ccccc4)N4Cc5ccccc5C4=O)c3)c2cc1OCCCN1CCOCC1` (stereo not drawn): the IC50 (in the assay on NCI-H1975 [2]; in assay [3]) was above 20 µM throughout.

For the compound `COc1cc2ncnc(Nc3ccc(NC(=O)C(c4ccccc4)N4Cc5ccccc5C4=O)cc3)c2cc1OCCCN1CCOCC1` (stereo not drawn), the IC50 was 8.13 µM in assay [1]; 1.69 µM with NCI-H1975 [2]; 5.47 µM in assay [3]; above 20 µM in the assay on A549; 1.45 µM in assay [4]. For the same compound, the “Ratio IC50” value with NCI-H1975 [5] worked out at 6.

Regarding `COc1cc2ncnc(NCc3ccc(NC(=O)C(c4ccccc4)N4Cc5ccccc5C4=O)cc3)c2cc1OCCCN1CCOCC1` (stereo not drawn), the IC50 in assay [1] stood at 3.46 µM; in the assay with NCI-H1975 [2], 11 µM; in assay [3], 3.67 µM.

Turning to `COc1cc2ncnc(NNc3ccc(NC(=O)C(c4ccccc4)N4Cc5ccccc5C4=O)cc3)c2cc1OCCCN1CCOCC1` (stereo not drawn), the IC50 stood at 5.13 µM in the assay on NCI-H1975 [2] and 7.8 µM in assay [3].

`COc1cc2ncnc(N(C)c3ccc(NC(=O)C(c4ccccc4)N4Cc5ccccc5C4=O)cc3)c2cc1OCCCN1CCOCC1` (stereo not drawn): the IC50 in the assay with NCI-H1975 [2] is 6.28 µM; in assay [3], 8.45 µM.

On to `COc1cc2ncnc(Nc3ccc(C(=O)NNC(=O)C(c4ccccc4)N4Cc5ccccc5C4=O)cc3)c2cc1OCCCN1CCOCC1` (stereo not drawn), for which the half-maximal inhibitory concentration (IC50) (in the assay on NCI-H1975 [2]; in assay [3]) was above 20 µM throughout.

With `COc1cc2ncnc(Nc3cccc(NC(=O)C(c4ccccc4)N4Cc5ccccc5C4=O)c3)c2cc1OCCCN1CCOCC1` (stereo not drawn), the half-maximal inhibitory concentration (IC50) in the assay with NCI-H1975 [2] is 9.32 µM; in assay [3] it was 9.06 µM.

Turning to `C=CC(=O)Nc1cc(Nc2nccc(-c3cn(C)c4ccccc34)n2)c(OC)cc1N(C)CCN(C)C` [OSIMERTINIB], the 50% inhibitory concentration (IC50) in assay [1] amounted to 0.75 µM.
